Test results as given in patent US11883387B2, “PqsR inverse agonists” (HELMHOLTZ-ZENTRUM FÜR INFEKTIONSFORSCHUNG GMBH, priority 2018, dated 2024).

Legend:
[1] = tested on: P. aeruginosa pyocyanin production; test: Pyocyanin assay; assay type: cell-based, P. aeruginosa PA14; details: Pseudomonas aeruginosa, PA14, 16 h, read-out: IC50-value towards pyocyanin production, PA14 in PPGAS medium, 16 h
Procedure, shortened: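 PA14 in PPGAS medium from OD600 0.02 grown 16 h at 37 °C, 200 rpm, with compounds. Pyocyanin extracted with chloroform, back-extracted into 0.2 M HCl, OD520 normalised to OD600.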

[2] = Metabolic stability in mouse liver microsomes (MLM); assay type: in vitro ADME; details: 1 μM compound, 0.5 mg/mL MLM, 1 mM NADPH, 37° C., read-out: half-life (t1/2) towards MLM
Description: For the evaluation of phase I metabolic stability, the compound (1 μM) was incubated with 0.5 mg/mL MLM (Corning) and 1 mM NADPH at 37° C. for 0, 5, 10, 15 and 30 min. The metabolic stability of Verapamil, Diphenhydramine and Benzydamine (1 μM each) were determined in parallel to confirm the enzymatic activity of the MLM. The incubation was stopped by addition of 2 volumes of acetonitrile containing internal standard (1 μM Leucine Enkephaline). Samples were centrifuged (15 min, 3,500 rpm). Concentration of the remaining test compound at the different time points was analyzed by HPLC-MS/MS and used to determine half-life (t1/2).

[3] = Kinetic Turbidimetric Aqueous Solubility at room temperature for 5 min; assay type: physicochemical; details: PBS buffer, kinetic from dmso stock, 2% DMSO
Procedure, shortened: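 Compound diluted in PBS across typically 0.4–200 μM (final DMSO 2%), held 5 min at room temperature. Turbidity read as absorbance at 620 nm against vehicle control. Four-parameter sigmoidal fit of normalized absorbances with AUC calculation gives Log S.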

PqsR = PqsR (Pseudomonas aeruginosa, UniProt Q9I4X0); test: E. coli based β-galactosidase reporter gene assay (PqsR inverse agonistic activity); assay type: cell-based; design: expressed in transfected cells; host or cells: Escherichia coli DH5α
Procedure, shortened: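 E. coli DH5α carrying pEAL08-2 (tac-driven pqsR with pqsA-lacZ) was grown to OD600 0.2 and incubated with 0.001–10 μM compound plus 50 nM PQS for 2.5 h at 37 °C. β-Galactosidase activity was measured by ONPG conversion in permeabilized cells and normalized between the no-PQS and solvent controls. IC50 came from concentration variation.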

[4] = Metabolic stability against human hepatic S9 fraction; assay type: in vitro ADME; details: pooled human liver S9 fraction; 1 μM compound, 1 mg/mL pooled human liver S9, phase I and II cofactors, 37° C.; read-out: half-life (t1/2) towards human hepatic S9 fraction
Description: For the evaluation of combined phase I and phase II metabolic stability, the compound (1 μM) was incubated with 1 mg/mL pooled human liver S9 fraction (BD Gentest), 2 mM NADPH regenerating system, 1 mM UDPGA, 10 mM MgCl2 and 0.1 mM PAPS at 37° C. for 0, 5, 15, 30 and 60 min. The metabolic stability of Testosterone (1 μM) and 7-hydroxycoumarin (1 μM) were determined in parallel to confirm the enzymatic activity of the S9 fraction. The incubation was stopped by precipitation of S9 enzymes with 2 volumes of cold acetonitrile containing internal standard (750 nM Diphenhydramine). Samples were stored on ice for 10 min and precipitated protein was removed by centrifugation (10 min, 4° C., 17,000 g). Concentration of the remaining test compound at the different time points was analyzed by LC-MS/MS (TSQ Quantum Access MAX, Thermo Fisher, Dreieich, Germany) and used to determine half-life (t/2).

PqsR, sequence (Q9I4X0 whole entry): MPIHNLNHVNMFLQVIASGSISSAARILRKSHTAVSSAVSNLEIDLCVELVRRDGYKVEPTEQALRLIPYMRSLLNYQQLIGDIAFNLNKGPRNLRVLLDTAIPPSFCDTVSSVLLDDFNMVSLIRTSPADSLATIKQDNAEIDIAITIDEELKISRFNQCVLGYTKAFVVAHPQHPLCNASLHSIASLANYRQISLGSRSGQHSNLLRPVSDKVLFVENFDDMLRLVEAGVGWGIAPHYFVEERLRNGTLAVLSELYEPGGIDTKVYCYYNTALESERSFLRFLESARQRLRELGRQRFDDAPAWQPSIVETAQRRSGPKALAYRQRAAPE

Row | SMILES | IC50 [1] [nM] | half-life at 1 μM [2] [h] | solubility at 5 min [3] [µM] | IC50 (PqsR) [nM] | half-life at 1 μM [4] [h]
1 | O=C(c1ccccc1)c1ccc(-n2cc(CNc3ccnc(C(F)(F)F)c3)nn2)cc1 [Compound 004, Phenyl(4-(4-(((2-(trifluoromethyl)pyridin-4-yl)amino)methyl)-1H-1,2,3-triazol-1-yl)phenyl)methanone] | 1000 to 5000 | > 1 | > 25 | ≤ 50 | 
2 | FC(F)(F)c1cc(NCc2cn(-c3ccc(-n4ccc5ccccc54)cc3)nn2)ccn1 [Compound 040, N-((1-(4-(1H-Indol-1-yl)phenyl)-1H-1,2,3-triazol-4-yl)methyl)-2-(trifluoromethyl)pyridin-4-amine] | 251 to 1000 | 0.517 to 1 | > 25 | 51 to 250 | 
3 | FC(F)(F)c1cc(NCc2cn(-c3ccc(-n4cnc5ccccc54)cc3)nn2)ccn1 [Compound 045, N-((1-(4-(1H-benzo[d]imidazol-1-yl)phenyl)-1H-1,2,3-triazol-4-yl)methyl)-2-(trifluoromethyl)pyridin-4-amine] | 1000 to 5000 | 0.517 to 1 | > 25 | 51 to 250 | 
4 | FC(F)(F)c1cc(NCc2cn(-c3ccc(-n4ncc5ccccc54)cc3)nn2)ccn1 [Compound 046, N-((1-(4-(1H-indazol-1-yl)phenyl)-1H-1,2,3-triazol-4-yl)methyl)-2-(trifluoromethyl)pyridin-4-amine] | 251 to 1000 | 0.517 to 1 | > 25 | 51 to 250 | 
5 | Oc1cc(NCc2cn(-c3ccc(Oc4ccccc4)cc3)nn2)cc(C(F)(F)F)n1 [Compound 050, 4-(((1-(4-Phenoxyphenyl)-1H-1,2,3-triazol-4-yl)methyl)amino)-6-(trifluoromethyl)pyridin-2-ol] | 1000 to 5000 | > 1 | ≥ 100 | ≤ 50 | 
6 | FC(F)(F)c1cc(SCc2cn(-c3ccc(Oc4ccccc4)cc3)nn2)ccn1 [Compound 054, 4-(((1-(4-phenoxyphenyl)-1H-1,2,3-triazol-4-yl)methyl)thio)-2-(trifluoromethyl)pyridine] | 251 to 1000 |  |  | ≤ 50 | > 1
7 | FC(F)(F)c1cc(SCc2cnc(-c3ccc(Oc4ccccc4)cc3)s2)ccn1 [Compound 066, 2-(4-Phenoxyphenyl)-5-(((2-(trifluoromethyl)pyridin-4-yl)thio)methyl)thiazole] | 1000 to 5000 |  |  | 51 to 250 | > 1
8 | FC(F)(F)c1cc(NCc2cnc(-c3ccc(Cl)nc3)s2)ccn1 [Compound 073, N-((2-(6-Chloropyridin-3-yl)thiazol-5-yl)methyl)-2-(trifluoromethyl)pyridin-4-amine] | 1000 to 5000 | > 1 | ≥ 100 | 51 to 250 | 
9 | FC(F)(F)c1cc(NCc2csc(-c3ccc(C4CC4)cc3)n2)ccn1 [Compound 081, N-((2-(4-Cyclopropylphenyl)thiazol-4-yl)methyl)-2-(trifluoromethyl)pyridin-4-amine] | ≤ 250 |  |  | ≤ 50 | 0.683 to 1
10 | CC(C)Oc1ccc(-c2nc(CNc3ccnc(C(F)(F)F)c3)cs2)cc1Cl [Compound 082, N-((2-(3-Chloro-4-isopropoxyphenyl)thiazol-4-yl)methyl)-2-(trifluoromethyl)pyridin-4-amine] | ≤ 250 |  |  | ≤ 50 | > 1
11 | FC(F)(F)c1cc(NCc2ccc(-c3ccc(Cl)nc3)cn2)ccn1 [Compound 098, N-((6′-Chloro-[3,3′-bipyridin]-6-yl)methyl)-2-(trifluoromethyl)pyridin-4-amine] |  | > 1 | ≥ 100 | 51 to 250 | 
12 | FC(F)(F)c1cc(NCc2ccc(-c3ccc(Oc4ccccc4)nc3)cn2)ccn1 [Compound 100, N-((6′-Phenoxy-[3,3′-bipyridin]-6-yl)methyl)-2-(trifluoromethyl)pyridin-4-amine] |  | 0.517 to 1 | > 25 | 51 to 250 | 
13 | FC(F)(F)c1cc(NCc2ccc(-c3cnc(Cl)c(Cl)c3)cn2)ccn1 [Compound 102, N-((5′,6′-Dichloro-[3,3′-bipyridin]-6-yl)methyl)-2-(trifluoromethyl)pyridin-4-amine] | 251 to 1000 | 0.517 to 1 | > 50 | 51 to 250 | 
14 | FC(F)(F)c1cc(NCc2cnc(-c3ccc(Oc4ccccc4)cc3)nc2)ccn1 [Compound 105, N-((2-(4-Phenoxyphenyl)pyrimidin-5-yl)methyl)-2-(trifluoromethyl)pyridin-4-amine] | 251 to 1000 | 0.517 to 1 | > 10 | 51 to 250 | 
15 | CC(C)Oc1ccc(-c2ncc(CNc3ccnc(C(F)(F)F)c3)cn2)cc1 [Compound 106, N-((2-(4-isopropoxyphenyl)pyrimidin-5-yl)methyl)-2-(trifluoromethyl)pyridin-4-amine] | 251 to 1000 | > 1 | > 25 | 51 to 250 | 
16 | FC(F)(F)c1cc(SCc2ccc(-c3ccc(Oc4ccccc4)nc3)cn2)ccn1 [Compound 114, 6-Phenoxy-6′-(((2-(trifluoromethyl)pyridin-4-yl)thio)methyl)-3,3′-bipyridine] |  |  |  | 51 to 250 | > 1
17 | FC(F)(F)c1cc(NCc2nc3cc(Cl)c(Cl)cc3[nH]2)ccn1 [Compound 121, N-((5,6-Dichloro-1H-benzo[d]imidazol-2-yl)methyl)-2-(trifluoromethyl)pyridin-4-amine] |  | 0.517 to 1 | ≥ 100 | 251 to 1000 | 
18 | Fc1ccccc1Oc1ccc(-n2cc(CNc3ccnc(C(F)(F)F)c3)nn2)cc1 [Compound 144, N-((1-(4-(2-fluorophenoxy)phenyl)-1H-1,2,3-triazol-4-yl)methyl)-2-(trifluoromethyl)pyridin-4-amine] | ≤ 250 | 0.517 to 1 | > 25 | ≤ 50 | 
19 | FC(F)(F)c1cc(NCc2cn(-c3ccc(-n4ncc5ccncc54)c(Cl)c3)nn2)ccn1 [Compound 147] | 251 to 1000 | 0.517 to 1 | > 50 | ≤ 50 | 
20 | CC(C)Oc1ccc(-c2ncc(CNc3cc(C#N)nc(C(F)(F)F)c3)s2)cc1Cl [Compound 160, 4-(((2-(3-Chloro-4-isopropoxyphenyl)thiazol-5-yl)methyl)amino)-6-(trifluoromethyl)picolinonitrile] | ≤ 250 | 0.517 to 1 | > 10 | ≤ 50 | 
21 | CC(C)Oc1ncc(-c2ncc(CNc3ccnc(C(F)(F)F)c3)cn2)cc1Cl [Compound 164, N-((2-(5-chloro-6-isopropoxypyridin-3-yl)pyrimidin-5-yl)methyl)-2-(trifluoromethyl)pyridin-4-amine] | 251 to 1000 | > 1 | > 25 | ≤ 50 | 
22 | CC(C)Oc1ccc(-c2ccc(CNc3ccnc(C(F)(F)F)c3)nc2)cc1Cl [Compound 165, N-((5-(3-chloro-4-isopropoxyphenyl)pyridin-2-yl)methyl)-2-(trifluoromethyl)pyridin-4-amine] | 251 to 1000 | > 1 | > 25 | ≤ 50 | 
23 | Fc1ccc(Oc2ccc3[nH]c(CNc4ccnc(C(F)(F)F)c4)nc3c2)cc1 [Compound 172, N-((5-(4-fluorophenoxy)-1H-benzo[d]imidazol-2-yl)methyl)-2-(trifluoromethyl)pyridin-4-amine] | 251 to 1000 | 0.517 to 1 | > 25 |  | 
24 | Nc1cc(OCc2nc3cc(Oc4ccccc4)ccc3[nH]2)nc(C(F)(F)F)n1 [Compound 181, 6-((5-phenoxy-1H-benzo[d]imidazol-2-yl)methoxy)-2-(trifluoromethyl)pyrimidin-4-amine] |  | > 1 | > 50 | 51 to 250 | 
